Measurements taken from paper PMC9958325 (Nature Communications, 2023).
Several values for one entry are separate records, joined by “and”; a condition that tells them apart may be missing. Identical values can stand only once. Like-named read-outs stand apart in the source and are kept apart here.

Experiments:
[1] = Pharmacokinetic study in PXB-mice (human liver-chimeric)
HeLa-ACE2-TMPRSS2 cells = test: Intracellular concentrations of compounds (LC/MS), HeLa-ACE2-TMPRSS2 cells; details: for Intracellular amount, avg / Intracellular amount, individual: 6 h; for intracellular compound, /1x10^6: calculated value per cell count; for intracellular compound, calculated value /20uL: from AUC against pmol standard curve
[2] = tested on: SARS-CoV-2 TKYS02037/ο BA.2; test: microbe, parasite or virus in culture; assay type: cell-based
[3] = Hela ACE2 TMPRSS2, drug 10, duplicates
[4] = Hela ACE2 TMPRSS2, drug 50, duplicates
[5] = Hela ACE2 TMPRSS2, drug 100, duplicates

In the case of `CC(C)(C)[C@H](NC(=O)C(F)(F)F)C(=O)N1C[C@H]2[C@@H]([C@H]1C(=O)N[C@H](C#N)C[C@@H]1CCNC1=O)C2(C)C` [Nirmatrelvir, reference compound], the Plasma concentration ([1]; PXB-mice, i.v. 10 mg/kg, 24 hr, individual mice) is reported as 0 ng/mL, the Plasma concentration ([1]; PXB-mice, p.o. 10 mg/kg, 10 min, individual mice, 10 mg/kg) is reported as 889.5 ng/mL and 980.6 ng/mL and the Plasma concentration ([1]; PXB-mice, p.o. 10 mg/kg, 0.17 hr, individual mice, 10 mg/kg) is reported as 890 ng/mL and 980 ng/mL. For the same compound, the Plasma concentration ([1]; PXB-mice, p.o. 10 mg/kg, 60 min, individual mice, 10 mg/kg) was 653.1 ng/mL and 318.8 ng/mL and 407 ng/mL, the Plasma concentration ([1]; PXB-mice, p.o. 10 mg/kg, 1 hr, individual mice, 10 mg/kg) was 650 ng/mL and 320 ng/mL and 410 ng/mL and the Plasma concentration ([1]; PXB-mice, p.o. 10 mg/kg, 240 min, individual mice, 10 mg/kg) was 34.6 ng/mL and 30.7 ng/mL. For the same compound, the Plasma concentration ([1]; PXB-mice, p.o. 10 mg/kg, 4 hr, individual mice, 10 mg/kg) was 30 ng/mL, the Plasma concentration ([1]; PXB-mice, p.o. 10 mg/kg, 480 min, individual mice, 10 mg/kg) was 4.4 ng/mL and 7.4 ng/mL and 18.7 ng/mL and the Plasma concentration ([1]; PXB-mice, p.o. 10 mg/kg, 8 hr, individual mice, 10 mg/kg) was 0 ng/mL and 10 ng/mL and 20 ng/mL. The Plasma concentration ([1]; PXB-mice, p.o. 10 mg/kg, 1440 min, individual mice, 10 mg/kg) was 0.6 ng/mL and 0.5 ng/mL, the Plasma concentration ([1]; PXB-mice, p.o. 10 mg/kg, 24 hr, individual mice) was 0 ng/mL and the “Oral F” value ([1]; male PXB-mouse 10 mg/kg i.v. and p.o., dose-normalized AUC ratio) was 56¶ %. It also gave a concentration at 10 min ([1]; male, PXB (human liver-chimeric), mouse, plasma, iv, 10 mg/kg, Plasma concentration, PXB-mice, i.v. 10 mg/kg, 10 min, individual mice) of 4250 ng/mL, a concentration at 0.17 hr ([1]; male, PXB (human liver-chimeric), mouse, plasma, iv, 10 mg/kg, Plasma concentration, PXB-mice, i.v. 10 mg/kg, 0.17 hr, individual mice) of 4250 ng/mL and a concentration at 60 min ([1]; male, PXB (human liver-chimeric), mouse, plasma, iv, 10 mg/kg, Plasma concentration, PXB-mice, i.v. 10 mg/kg, 60 min, individual mice) of 344 ng/mL. For the same compound, the concentration at 1 hr ([1]; male, PXB (human liver-chimeric), mouse, plasma, iv, 10 mg/kg, Plasma concentration, PXB-mice, i.v. 10 mg/kg, 1 hr, individual mice) was 340 ng/mL, the concentration at 480 min ([1]; male, PXB (human liver-chimeric), mouse, plasma, iv, 10 mg/kg, Plasma concentration, PXB-mice, i.v. 10 mg/kg, 480 min, individual mice) was 2.2 ng/mL and the concentration at 8 hr ([1]; male, PXB (human liver-chimeric), mouse, plasma, iv, 10 mg/kg, Plasma concentration, PXB-mice, i.v. 10 mg/kg, 8 hr, individual mice) was 0 ng/mL. It also gave a concentration at 24 hr ([1]; male, PXB (human liver-chimeric), mouse, plasma, iv, 10 mg/kg, Plasma concentration, PXB-mice, i.v. 10 mg/kg, 24 hr, individual mice) of 0 ng/mL, a Cmax ([1]; male, PXB (human liver-chimeric), mouse, plasma, po, 10 mg/kg) of 1160 ng/mL and a concentration at 10 min ([1]; male, PXB (human liver-chimeric), mouse, plasma, po, 10 mg/kg, Plasma concentration, PXB-mice, p.o. 10 mg/kg, 10 min, individual mice) of 1600 ng/mL. For the same compound, the concentration at 0.17 hr ([1]; male, PXB (human liver-chimeric), mouse, plasma, po, 10 mg/kg, Plasma concentration, PXB-mice, p.o. 10 mg/kg, 0.17 hr, individual mice) was 1600 ng/mL, the concentration at 240 min ([1]; male, PXB (human liver-chimeric), mouse, plasma, po, 10 mg/kg, Plasma concentration, PXB-mice, p.o. 10 mg/kg, 240 min, individual mice) was 47.2 ng/mL and the concentration at 4 hr ([1]; male, PXB (human liver-chimeric), mouse, plasma, po, 10 mg/kg, Plasma concentration, PXB-mice, p.o. 10 mg/kg, 4 hr, individual mice) was 50 ng/mL. The concentration at 1440 min ([1]; male, PXB (human liver-chimeric), mouse, plasma, po, 10 mg/kg, Plasma concentration, PXB-mice, p.o. 10 mg/kg, 1440 min, individual mice) was 0.6 ng/mL, the concentration at 24 hr ([1]; male, PXB (human liver-chimeric), mouse, plasma, po, 10 mg/kg, Plasma concentration, PXB-mice, p.o. 10 mg/kg, 24 hr, individual mice) was 0 ng/mL and the Plasma concentration ([1]; p.o., 10 min, individual animals (3 per time point), LC/MS/MS) was 889.46 ng/mL and 980.64 ng/mL. The Plasma concentration ([1]; p.o., 60 min, individual animals (3 per time point), LC/MS/MS) was 653.07 ng/mL and 318.79 ng/mL and 406.97 ng/mL, the Plasma concentration ([1]; p.o., 240 min, individual animals (3 per time point), LC/MS/MS) was 34.58 ng/mL and 30.74 ng/mL and the Plasma concentration ([1]; p.o., 480 min, individual animals (3 per time point), LC/MS/MS) was 4.42 ng/mL and 7.44 ng/mL and 18.67 ng/mL. The Plasma concentration ([1]; p.o., 1440 min, individual animals (3 per time point), LC/MS/MS) was 0.61 ng/mL and 0.54 ng/mL, the “Intracellular amount, avg” value (HeLa-ACE2-TMPRSS2 cells; Hela ACE2 TMPRSS2, 10uM) was 0.5065 pmol(total) and the “Intracellular amount, individual” value (HeLa-ACE2-TMPRSS2 cells; Hela ACE2 TMPRSS2, 10uM) was 0.5088 pmol(total) and 0.5041 pmol(total). The “Intracellular amount, avg” value (HeLa-ACE2-TMPRSS2 cells; Hela ACE2 TMPRSS2, 50uM) was 1.799 pmol(total), the “Intracellular amount, individual” value (HeLa-ACE2-TMPRSS2 cells; Hela ACE2 TMPRSS2, 50uM) was 1.518 pmol(total) and 2.08 pmol(total) and the “Intracellular amount, avg” value (HeLa-ACE2-TMPRSS2 cells; Hela ACE2 TMPRSS2, 100uM) was 3.821 pmol(total). The “Intracellular amount, individual” value (HeLa-ACE2-TMPRSS2 cells; Hela ACE2 TMPRSS2, 100uM) was 3.049 pmol(total) and 4.592 pmol(total), the “intracellular compound, pmol(total)” value (HeLa-ACE2-TMPRSS2 cells; [3]) was 0.5088 pmol and 0.5041 pmol and the “intracellular compound, /1x10^6” value (HeLa-ACE2-TMPRSS2 cells; [3]) was 0.2035 /1x10^6 and 0.2016 /1x10^6. For the same compound, the “intracellular compound, calculated value /20uL” value (HeLa-ACE2-TMPRSS2 cells; [3]) was 0.53 /20uL and 0.52 /20uL, the “intracellular compound, pmol(total)” value (HeLa-ACE2-TMPRSS2 cells; [4]) was 1.518 pmol and 2.08 pmol and the “intracellular compound, /1x10^6” value (HeLa-ACE2-TMPRSS2 cells; [4]) was 0.6073 /1x10^6 and 0.832 /1x10^6. For the same compound, the “intracellular compound, calculated value /20uL” value (HeLa-ACE2-TMPRSS2 cells; [4]) was 1.70 /20uL and 1.83 /20uL, the “intracellular compound, pmol(total)” value (HeLa-ACE2-TMPRSS2 cells; [5]) was 3.049 pmol and 4.592 pmol and the “intracellular compound, /1x10^6” value (HeLa-ACE2-TMPRSS2 cells; [5]) was 1.22 /1x10^6 and 1.837 /1x10^6. For the same compound, the “intracellular compound, calculated value /20uL” value (HeLa-ACE2-TMPRSS2 cells; [5]) was 3.90 /20uL and 4.04 /20uL, the EC50 ([2]; Severe acute respiratory syndrome coronavirus 2, Vero C1008, read-out: EC50 against TKYVS2037/ο BA.2) was 1.24 ± 0.125 µM and the EC50 ([2]; Severe acute respiratory syndrome coronavirus 2, Vero C1008, read-out: EC50 ο BA2, individual assays) was 1.23 µM. For the same compound, the EC50 ([2]; read-out: EC50 ο BA2, individual assays) was 1.12 µM and 1.37 µM.
